For the test, the target named is T1, IDO1 (Homo sapiens, UniProt P14902).
T1 construct: endogenous in cells; host or cells: HeLa cells (ATCC), IFNgamma-induced
T1 sequence (P14902 whole entry): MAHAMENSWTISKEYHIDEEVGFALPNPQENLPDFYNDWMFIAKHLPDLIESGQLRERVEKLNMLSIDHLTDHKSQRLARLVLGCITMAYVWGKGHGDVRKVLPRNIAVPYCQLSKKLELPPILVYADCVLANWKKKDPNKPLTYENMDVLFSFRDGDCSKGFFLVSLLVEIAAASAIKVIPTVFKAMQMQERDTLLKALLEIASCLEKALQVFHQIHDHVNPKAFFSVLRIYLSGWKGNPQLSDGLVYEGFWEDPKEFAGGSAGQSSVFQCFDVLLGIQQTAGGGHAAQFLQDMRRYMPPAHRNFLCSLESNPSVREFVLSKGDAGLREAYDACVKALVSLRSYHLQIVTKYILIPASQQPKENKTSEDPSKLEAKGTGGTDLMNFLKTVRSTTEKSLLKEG
The test can be described thus: IDO1 cell-based assay (HeLa cells, IFNgamma-induced, N-formylkynurenine/L-tryptophan by RFMS). The settings on record: 10 ng/mL IFNgamma, 24 hours. An outline of the steps: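 N-formylkynurenine and tryptophan peak areas in media measured by RFMS (C18, isocratic, d-Trp standard), giving IC50 values by regression. Source: HeLa cells incubated 24 h with IFNgamma (10 ng/mL) plus test compound at 0.5% DMSO; parallel CellTiter-Glo viability read.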
As a reminder, the IC50 is the concentration that inhibits the measured activity by half. A higher IC50 goes with lower potency. Take `CCOC(=O)CC(NC(=O)c1ccc(Cl)cc1)[C@H]1[C@@H]2C[C@@H](Oc3cnnc4ccccc34)C[C@@H]21` (stereo partly drawn) [Compound 84, ethyl 3-(4-chlorobenzamido)-3-((1R,3s,5S,6r)-3-(cinnolin-4-yloxy)bicyclo[3.1.0]hexan-6-yl)propanoate]: the IC50 was under 200 nM. In the case of `CC[C@@H](NC(=O)N1CCC(F)(F)CC1)[C@H]1[C@@H]2C[C@@H](n3cnc4cc(F)c(F)cc43)C[C@@H]21` [Compound 355, N-((R)-1-((1R,3S,5S,6r)-3-(5,6-difluoro-1H-benzo[d]imidazol-1-yl)bicyclo[3.1.0]hexan-6-yl)propyl)-4,4-difluoropiperidine-1-carboxamide], the IC50 is under 200 nM. For `CCC(NC(=O)c1ccc(Cl)cc1)[C@H]1[C@@H]2C[C@@H](n3cnc4ccc(F)cc4c3=O)C[C@@H]21` (stereo partly drawn) [Compound 6, 4-chloro-N-(1-((1R,3s,5S,6r)-3-(6-fluoro-4-oxoquinazolin-3(4H)-yl)bicyclo[3.1.0]hexan-6-yl)propyl)benzamide] the value was under 200 nM; for `CC[C@@H](NC(=O)c1csc(C)n1)[C@H]1[C@@H]2C[C@@H](n3cnc4cc(F)c(F)cc43)C[C@@H]21` [Compound 309, N-((R)-1-((1R,3S,5S,6r)-3-(5,6-difluoro-1H-benzo[d]imidazol-1-yl)bicyclo[3.1.0]hexan-6-yl)propyl)-2-methylthiazole-4-carboxamide], 200 to 2000 nM; for `CC[C@@H](NC(=O)c1cccc(C#N)c1)[C@H]1[C@@H]2C[C@@H](n3cnc4cc(F)c(F)cc43)C[C@@H]21` [Compound 313, 3-cyano-N-((R)-1-((1R,3S,5S,6r)-3-(5,6-difluoro-1H-benzo[d]imidazol-1-yl)bicyclo[3.1.0]hexan-6-yl)propyl)benzamide], under 200 nM. Under `C=C(C)c1cn([C@@H]2C[C@@H]3[C@H](C2)[C@H]3C(CC)NC(=O)c2ccc(Cl)cc2)nn1` (stereo partly drawn) [Compound 262, 4-chloro-N-(1-((1R,3S,5S,6r)-3-(4-(propen-2-yl)-1H-1,2,3-triazol-1-yl)bicyclo[3.1.0]hexan-6-yl)propyl)benzamide] stands under 200 nM.

As for `CC[C@@H](NC(=O)c1ccc(Cl)cc1)[C@H]1[C@@H]2C[C@@H](c3ccnc4ccc(F)cc34)C[C@@H]21` [Compound 266, 4-chloro-N—((R)-1-((1R,3S,5S,6r)-3-(6-fluoroquinolin-4-yl)bicyclo[3.1.0]hexan-6-yl)propyl)benzamide], the IC50 was under 200 nM.

As for `O=C(Nc1ccc(Cl)cc1)N[C@H]1[C@@H]2C[C@H](Oc3ccnc4ccc(F)cc34)C[C@@H]21` [Compound 29, 1-(4-chlorophenyl)-3-((1R,3r,5S,6r)-3-((6-fluoroquinolin-4-yl)oxy)bicyclo[3.1.0]hexan-6-yl)urea], the IC50 fell in the range of 200 to 2000 nM. Under `CCC(NC(=O)c1ccc(Cl)cc1)[C@H]1[C@@H]2C[C@H](Oc3ccc4nccc(Cl)c4c3)C[C@@H]21` (stereo partly drawn) [Compound 127, 4-chloro-N-(1-((1R,3r,5S,6r)-3-((4-chloroquinolin-6-yl)oxy)bicyclo[3.1.0]hexan-6-yl)propyl)benzamide] stands under 200 nM; under `CCC(NC(=O)c1ccc(Cl)cc1)[C@H]1[C@@H]2C[C@@H](NS(=O)(=O)c3ccccc3)C[C@@H]21` (stereo partly drawn) [Compound 116, 4-chloro-N-(1-((1R,3s,5S,6r)-3-(phenylsulfonamido)bicyclo[3.1.0]hexan-6-yl)propyl)benzamide], 200 to 2000 nM; under `CCC(NC(=O)c1ccc(Cl)cc1)[C@H]1[C@@H]2C[C@H](O)C[C@@H]21` (stereo partly drawn) [Compound 1, 4-chloro-N-(1-((1R,3r,5S,6r)-3-hydroxybicyclo[3.1.0]hexan-6-yl)propyl)benzamide], 2000 to 5000 nM. For `CCC(NC(=O)c1ccc(Cl)cc1)[C@H]1[C@@H]2C=CC[C@@H]21` (stereo partly drawn) [Compound 113, N-(1-((1R,5S,6R)-bicyclo[3.1.0]hex-2-en-6-yl)propyl)-4-chlorobenzamide] the value was 200 to 2000 nM. Under `CCC(NC(=O)c1ccc(Cl)cc1)C1C2CC(Oc3nncc4ccccc34)CC21` [Compound 72, 4-chloro-N-(1-((1R,3s,5S,6r)-3-(phthalazin-1-yloxy)bicyclo[3.1.0]hexan-6-yl)propyl)benzamide] stands under 200 nM; under `O=C(Cc1ccc(Cl)cc1)NC1[C@H]2CC(Oc3ccnc4ccc(F)cc34)C[C@@H]12` (stereo partly drawn) [Compound 31, 2-(4-chlorophenyl)-N-((1R,3r,5S)-3-((6-fluoroquinolin-4-yl)oxy)bicyclo[3.1.0]hexan-6-yl)acetamide], 200 to 2000 nM. `CC[C@@H](NC(=O)Nc1ccc(Cl)cc1)[C@H]1[C@@H]2C[C@@H](n3cnc4cc(F)c(F)cc43)C[C@@H]21` [Compound 344, 1-(4-chlorophenyl)-3-((R)-1-((1R,3S,5S,6r)-3-(5,6-difluoro-1H-benzo[d]imidazol-1-yl)bicyclo[3.1.0]hexan-6-yl)propyl)urea] showed an IC50 of under 200 nM.

For the compound `CCC(NC(=O)c1ccc(Cl)cc1)[C@H]1[C@@H]2C[C@@H](Oc3ncnc4ccccc34)C[C@@H]21` (stereo partly drawn) [Compound 59, 4-chloro-N-(1-((1R,3s,5S,6r)-3-(quinazolin-4-yloxy)bicyclo[3.1.0]hexan-6-yl)propyl)benzamide], the IC50 is under 200 nM. For `C=Cc1cnn([C@@H]2C[C@@H]3[C@H](C2)[C@H]3[C@@H](CC)NC(=O)c2ccc(Cl)cc2)c1` [Compound 305, 4-chloro-N-((R)-1-((1R,3S,5S,6r)-3-(4-vinyl-1H-pyrazol-1-yl)bicyclo[3.1.0]hexan-6-yl)propyl)benzamide] the value was under 200 nM.

`Cc1cccnc1O[C@@H]1C[C@@H]2[C@H](C1)[C@H]2C(C)NC(=O)c1ccc(Cl)cc1` (stereo partly drawn) [Compound 71, 4-chloro-N-(1-((1R,3s,5S,6r)-3-((3-methylpyridin-2-yl)oxy)bicyclo[3.1.0]hexan-6-yl)ethyl)benzamide] returned an IC50 of under 200 nM. `CCC(NC(=O)c1ccc(Cl)cc1)[C@H]1[C@@H]2C[C@@H](Oc3ccccc3CN(C)C)C[C@@H]21` (stereo partly drawn) [Compound 48, 4-chloro-N-(1-((1R,3s,5S,6r)-3-(2-((dimethylamino)methyl)phenoxy)bicyclo[3.1.0]hexan-6-yl)propyl)benzamide] showed an IC50 of 2000 to 5000 nM.

As for `CCC(NC(=O)c1ccc(Cl)cc1)[C@H]1[C@@H]2C[C@@H](Oc3ccc(F)nc3)C[C@@H]21` (stereo partly drawn) [Compound 18, 4-chloro-N-(1-((1R,3s,5S,6r)-3-((6-fluoropyridin-3-yl)oxy)bicyclo[3.1.0]hexan-6-yl)propyl)benzamide], the IC50 is under 200 nM. For `O=C(Cc1ccc(Cl)cc1)N[C@H]1[C@@H]2C[C@@H](n3ncc(=O)c4ccccc43)C[C@@H]21` [Compound 85, 2-(4-chlorophenyl)-N-((1R,3s,5S,6r)-3-(4-oxocinnolin-1(4H)-yl)bicyclo[3.1.0]hexan-6-yl)acetamide] the value was over 5000 nM. In the case of `CCC(NC(=O)c1ccc(Cl)cc1)[C@H]1[C@@H]2C[C@@H](N3C(=O)Cc4cc(F)ccc43)C[C@@H]21` (stereo partly drawn) [Compound 121, 4-chloro-N-(1-((1R,3s,5S,6r)-3-(5-fluoro-2-oxoindolin-1-yl)bicyclo[3.1.0]hexan-6-yl)propyl)benzamide], the IC50 was under 200 nM.

Take `CCC(NC(=O)c1ccc(Cl)cc1)[C@H]1[C@@H]2C[C@@H](NS(=O)(=O)C3(C)CC3)C[C@@H]21` (stereo partly drawn) [Compound 160, 4-chloro-N-(1-((1R,3s,5S,6r)-3-((1-methylcyclopropane)-1-sulfonamido)bicyclo[3.1.0]hexan-6-yl)propyl)benzamide]: the IC50 is 200 to 2000 nM. Under `C=C(C)c1cn([C@@H]2C[C@@H]3[C@H](C2)[C@H]3C(CC)NC(=O)c2ccc(Cl)cc2)nn1` (stereo partly drawn) [Compound 147, 4-chloro-N-(1-((1R,3s,5S,6r)-3-(4-(prop-1-en-2-yl)-1H-1,2,3-triazol-1-yl)bicyclo[3.1.0]hexan-6-yl)propyl)benzamide] stands under 200 nM. For `CCC(NC(=O)c1ccc(Cl)cc1)[C@H]1[C@@H]2C[C@@H](Oc3cc(F)ccc3F)C[C@@H]21` (stereo partly drawn) [Compound 42, 4-chloro-N-(1-((1R,3s,5S,6r)-3-(2,5-difluorophenoxy)bicyclo[3.1.0]hexan-6-yl)propyl)benzamide] the value was under 200 nM. As for `C[C@@H](NC(=O)c1ccc(C#N)cc1)[C@H]1[C@@H]2C[C@@H](O)C[C@@H]21` [Compound 297, 4-cyano-N-((R)-1-((1R,3S,5S,6r)-3-hydroxybicyclo[3.1.0]hexan-6-yl)ethyl)benzamide], the IC50 was over 5000 nM.

The compound `COc1ccc(C(=O)NC[C@@H]2[C@H]3C[C@H](n4cnc5cc(F)c(F)cc54)C[C@@H]23)cn1` [Compound 318, N-(((1R,3s,5S,6r)-3-(5,6-difluoro-1H-benzo[d]imidazol-1-yl)bicyclo[3.1.0]hexan-6-yl)methyl)-6-methoxynicotinamide] returned an IC50 of 200 to 2000 nM. For `CCC(NC(=O)c1ccc(Cl)cc1)[C@H]1[C@@H]2C[C@@H](N3C(=O)CC(C)(C)C3=O)C[C@@H]21` (stereo partly drawn) [Compound 122, 4-chloro-N-(1-((1R,3s,5S,6r)-3-(3,3-dimethyl-2,5-dioxopyrrolidin-1-yl)bicyclo[3.1.0]hexan-6-yl)propyl)benzamide] the value was 2000 to 5000 nM; for `O=S(=O)(NC1C2CC(Oc3ccnc4ccccc34)CC21)c1ccc(Cl)cc1` (stereo not shown) [Compound 28, 4-chloro-N-(3-(quinolin-4-yloxy)bicyclo[3.1.0]hexan-6-yl)benzenesulfonamide], over 5000 nM. For `CCC(NC(=O)c1ccc(Cl)cc1)[C@H]1[C@@H]2C[C@@H](NC(=O)c3ccncn3)C[C@@H]21` (stereo partly drawn) [Compound 149, N-((1R,3s,5S,6r)-6-(1-(4-chlorobenzamido)propyl)bicyclo[3.1.0]hexan-3-yl)pyrimidine-4-carboxamide] the value was under 200 nM; for `CCC(NC(=O)c1cnc(OC)nc1)[C@H]1[C@@H]2C[C@@H](Oc3ncnc4ccc(F)cc34)C[C@@H]21` (stereo partly drawn) [Compound 68, N-(1-((1R,3s,5S,6r)-3-((6-fluoroquinazolin-4-yl)oxy)bicyclo[3.1.0]hexan-6-yl)propyl)-2-methoxypyrimidine-5-carboxamide], 2000 to 5000 nM.

Source of the values: patent publication US11173145B2, “Compounds useful as inhibitors of indoleamine 2,3-dioxygenase and/or tryptophan dioxygenase” (Board of Regents, The University of Texas System, priority 2017, dated 2021).
